From patent US12509444B2, “Compounds and methods for CD73 modulation and indications therefor” (Plexxikon Inc., priority 2019, dated 2025)

Legend:
[1] = biological target: T1, human CD73 (Homo sapiens, UniProt P21589); experiment: Inhibitor activity against CD73 in cell based assay (CD73 expressing CHO-K1 cells); conditions: CHO-K1 cells expressing human CD73, 150 μM AMP, 4 hours of incubation; read-out: CHO-K1 CELL VARIANT: CD73 IC50
T1 construct: expressed in transfected cells
T1 sequence (P21589 27-549): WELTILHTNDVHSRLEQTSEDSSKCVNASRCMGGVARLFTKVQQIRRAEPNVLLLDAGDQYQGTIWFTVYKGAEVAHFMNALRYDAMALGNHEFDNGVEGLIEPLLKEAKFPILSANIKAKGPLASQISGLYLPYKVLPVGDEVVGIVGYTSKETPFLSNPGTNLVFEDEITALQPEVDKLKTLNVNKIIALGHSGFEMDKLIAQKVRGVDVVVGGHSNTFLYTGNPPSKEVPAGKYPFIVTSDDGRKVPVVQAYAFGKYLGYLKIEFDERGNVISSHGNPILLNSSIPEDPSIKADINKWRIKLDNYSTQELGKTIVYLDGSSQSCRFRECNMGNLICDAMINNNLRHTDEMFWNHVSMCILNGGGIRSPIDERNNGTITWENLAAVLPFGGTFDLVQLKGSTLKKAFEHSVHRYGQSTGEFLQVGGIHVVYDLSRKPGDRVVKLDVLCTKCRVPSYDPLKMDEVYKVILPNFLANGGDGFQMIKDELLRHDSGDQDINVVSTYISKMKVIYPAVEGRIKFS
Procedure, shortened: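 Stably transfected CHO-K1 cells expressing human CD73 (1×10^4/well) incubated 4 h with compound (8-point 1:3 titration, top 10 μM final, 0.2% DMSO) and 150 μM AMP. Residual AMP in supernatant measured by CellTiter-Glo luminescence with 1 μM ATP after 30 min at room temperature; IC50 by nonlinear regression of percent inhibition vs high/low controls.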

[2] = biological target: T2, Human CD73 (amino acid residues 27-549) (Homo sapiens, UniProt P21589); experiment: CD73 enzymatic assay (luciferase-based indirect assay, CellTiter-Glo); format: biochemical; conditions: 0.4 nM CD73, 150 μM AMP, 1 hour at room temperature
T2 construct: Human CD73 (amino acid residues 27-549); His tag (N); made in house; host or cells: E. coli
T2 sequence (P21589 27-549): T1 sequence (P21589 27-549)
Procedure, shortened: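 His-tagged human CD73 (27-549) from E. coli, 0.4 nM, with 150 μM AMP in 50 mM HEPES pH 7.4, 0.01% Tween 20; 1 h at room temperature. AMP remaining read by CellTiter-Glo 2.0 luminescence with 1 μM final ATP after 30 min. IC50 from nonlinear regression of % inhibition.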

| Compound | IC50 [1] [µM] | IC50 [2] [µM] |
| --- | --- | --- |
| N[C@H]1C[C@H](NC(=O)O[C@@H]2CCN(c3cn[nH]c(=O)c3Cl)C2)C1 [P-0167, (R)-1-(5-chloro-6-oxo-1,6-dihydropyridazin-4-yl)pyrrolidin-3-yl ((1r,3R)-3-aminocyclobutyl)carbamate] | 0.001 to 10 | 0.001 to 10 |
| O=C(Nc1ccc(F)cc1)N[C@H]1C[C@H](NC(=O)O[C@@H]2CCN(c3cn[nH]c(=O)c3Cl)C2)C1 [P-0168, (R)-1-(5-chloro-6-oxo-1,6-dihydropyridazin-4-yl)pyrrolidin-3-yl ((1r,3R)-3-(3-(4-fluorophenyl)ureido)cyclobutyl) carbamate] | 0.001 to 10 | 0.001 to 10 |
| CCOC(=O)N[C@H]1C[C@H](NC(=O)O[C@@H]2CCN(c3cn[nH]c(=O)c3Cl)C2)C1 [P-0169, (R)-1-(5-chloro-6-oxo-1,6-dihydropyridazin-4-yl)pyrrolidin-3-yl ethyl ((1R,3r)-cyclobutane-1,3-diyl)dicarbamate] | 0.001 to 10 | 0.001 to 10 |
| CS(=O)(=O)N[C@H]1C[C@H](NC(=O)O[C@@H]2CCN(c3cn[nH]c(=O)c3Cl)C2)C1 [P-0170, (R)-1-(5-chloro-6-oxo-1,6-dihydropyridazin-4-yl)pyrrolidin-3-yl ((1r,3R)-3-(methylsulfonamido)cyclobutyl)carbamate] | 0.001 to 10 | 0.001 to 10 |
| O=C(N[C@H]1C[C@H](NS(=O)(=O)c2ccccc2)C1)O[C@@H]1CCN(c2cn[nH]c(=O)c2Cl)C1 [P-0171, (R)-1-(5-chloro-6-oxo-1,6-dihydropyridazin-4-yl)pyrrolidin-3-yl ((1r,3R)-3-(phenylsulfonamido)cyclobutyl) carbamate] | 0.001 to 10 | 0.001 to 10 |
| O=CN[C@H]1C[C@H](NC(=O)O[C@@H]2CCN(c3cn[nH]c(=O)c3Cl)C2)C1 [P-0172, (R)-1-(5-chloro-6-oxo-1,6-dihydropyridazin-4-yl)pyrrolidin-3-yl ((1r,3R)-3-formamidocyclobutyl) carbamate] | 0.001 to 10 | 0.001 to 10 |
| O=C(NC1CCCC1)N[C@H]1CC[C@H](NC(=O)O[C@@H]2CCN(c3cn[nH]c(=O)c3Cl)C2)CC1 [P-0173, (R)-1-(5-chloro-6-oxo-1,6-dihydropyridazin-4-yl)pyrrolidin-3-yl ((1r,4R)-4-(3-cyclopentylureido)cyclohexyl) carbamate] | 0.001 to 10 | 0.001 to 10 |
| O=C(NC1CCCCC1)N[C@H]1CC[C@H](NC(=O)O[C@@H]2CCN(c3cn[nH]c(=O)c3Cl)C2)CC1 [P-0174, (R)-1-(5-chloro-6-oxo-1,6-dihydropyridazin-4-yl)pyrrolidin-3-yl ((1r,4R)-4-(3-cyclohexylureido)cyclohexyl) carbamate] | 0.001 to 10 | 0.001 to 10 |
| O=C(N[C@H]1CC[C@H](NS(=O)(=O)c2ccc(F)cc2)CC1)O[C@@H]1CCN(c2cn[nH]c(=O)c2Cl)C1 [P-0175, (R)-1-(5-chloro-6-oxo-1,6-dihydropyridazin-4-yl)pyrrolidin-3-yl ((1r,4R)-4-((4-fluorophenyl)sulfonamido)cyclohexyl)carbamate] | 0.001 to 10 | 0.001 to 10 |
| O=C(N[C@H]1CC[C@H](NS(=O)(=O)c2ccccc2F)CC1)O[C@@H]1CCN(c2cn[nH]c(=O)c2Cl)C1 [P-0176, (R)-1-(5-chloro-6-oxo-1,6-dihydropyridazin-4-yl)pyrrolidin-3-yl ((1r,4R)-4-((2-fluorophenyl)sulfonamido)cyclohexyl)carbamate] | 0.001 to 10 | 0.001 to 10 |
| O=C(NCC1(CCl)CC(NC(=O)O[C@@H]2CCN(c3cn[nH]c(=O)c3Cl)C2)C1)Nc1ccc(F)cc1 (stereo partly drawn) [P-0177, (R)-1-(5-chloro-6-oxo-1,6-dihydropyridazin-4-yl)pyrrolidin-3-yl (3-(chloromethyl)-3-((3-(4-fluorophenyl)ureido)methyl)cyclobutyl)carbamate] | 0.001 to 10 | 0.001 to 10 |
| O=C(Nc1ccc(F)cc1)N[C@H]1CC[C@H](NC(=O)O[C@@H]2CCN(c3cn[nH]c(=O)c3Cl)C2)CC1 [P-0178, (R)-1-(5-chloro-6-oxo-1,6-dihydropyridazin-4-yl)pyrrolidin-3-yl ((1r,4R)-4-(3-(4-fluorophenyl)ureido)cyclohexyl)carbamate] | 0.001 to 10 | 0.001 to 10 |
| COC(=O)[C@H]1CC[C@@H](NC(=O)O[C@@H]2CCN(c3cn[nH]c(=O)c3Cl)C2)CC1 [P-0179, methyl (1S,4s)-4-(((((R)-1-(5-chloro-6-oxo-1,6-dihydropyridazin-4-yl)pyrrolidin-3-yl)oxy)carbonyl)amino) cyclohexane-1-carboxylate] | 0.001 to 10 | 0.001 to 10 |
| O=C(N[C@H]1CC[C@@H](C(=O)O)CC1)O[C@@H]1CCN(c2cn[nH]c(=O)c2Cl)C1 [P-0180, (1S,4s)-4-(((((R)-1-(5-chloro-6-oxo-1,6-dihydropyridazin-4-yl)pyrrolidin-3-yl)oxy)carbonyl)amino) cyclohexane-1-carboxylic acid] | 10 to 100 | 0.001 to 10 |
| NC(=O)[C@H]1CC[C@@H](NC(=O)O[C@@H]2CCN(c3cn[nH]c(=O)c3Cl)C2)CC1 [P-0181, (R)-1-(5-chloro-6-oxo-1,6-dihydropyridazin-4-yl)pyrrolidin-3-yl ((1s,4S)-4-carbamoylcyclohexyl) carbamate] | 0.001 to 10 | 0.001 to 10 |
| CCCNC(=O)[C@H]1CC[C@@H](NC(=O)O[C@@H]2CCN(c3cn[nH]c(=O)c3Cl)C2)CC1 [P-0182, (R)-1-(5-chloro-6-oxo-1,6-dihydropyridazin-4-yl)pyrrolidin-3-yl ((1s,4S)-4-(propylcarbamoyl)cyclohexyl) carbamate] | 0.001 to 10 | 0.001 to 10 |
| O=C(N[C@H]1CC[C@@H](C(=O)Nc2ccccc2)CC1)O[C@@H]1CCN(c2cn[nH]c(=O)c2Cl)C1 [P-0183, (R)-1-(5-chloro-6-oxo-1,6-dihydropyridazin-4-yl)pyrrolidin-3-yl ((1s,4S)-4-(phenylcarbamoyl)cyclohexyl) carbamate] | 0.001 to 10 | 0.001 to 10 |
| O=C(N[C@H]1CC[C@H](NC(=O)c2ccccc2)CC1)O[C@@H]1CCN(c2cn[nH]c(=O)c2Cl)C1 [P-0184, (R)-1-(5-chloro-6-oxo-1,6-dihydropyridazin-4-yl)pyrrolidin-3-yl ((1r,4R)-4-benzamidocyclohexyl) carbamate] | 0.001 to 10 | 0.001 to 10 |
| O=C(N[C@H]1CC[C@@H](NS(=O)(=O)c2ccc(F)cc2)CC1)O[C@@H]1CCN(c2cn[nH]c(=O)c2Cl)C1 [P-0185, (R)-1-(5-chloro-6-oxo-1,6-dihydropyridazin-4-yl)pyrrolidin-3-yl ((1s,4S)-4-((4-fluorophenyl)sulfonamido)cyclohexyl)carbamate] | 0.001 to 10 | 0.001 to 10 |
| O=C(N[C@H]1CC[C@@H](NC(=O)c2ccccc2)CC1)O[C@@H]1CCN(c2cn[nH]c(=O)c2Cl)C1 [P-0186, (R)-1-(5-chloro-6-oxo-1,6-dihydropyridazin-4-yl)pyrrolidin-3-yl ((1s,4S)-4-benzamidocyclohexyl) carbamate] | 0.001 to 10 | 0.001 to 10 |
| COC(=O)[C@H]1CC[C@H](NC(=O)O[C@@H]2CCN(c3cn[nH]c(=O)c3Cl)C2)CC1 [P-0187, methyl (1R,4r)-4-(((((R)-1-(5-chloro-6-oxo-1,6-dihydropyridazin-4-yl)pyrrolidin-3-yl)oxy)carbonyl)amino) cyclohexane-1-carboxylate] | 0.001 to 10 | 0.001 to 10 |
| COC(=O)[C@H]1C[C@H](NC(=O)O[C@@H]2CCN(c3cn[nH]c(=O)c3Cl)C2)C1 [P-0188, methyl (1R,3r)-3-(((((R)-1-(5-chloro-6-oxo-1,6-dihydropyridazin-4-yl)pyrrolidin-3-yl)oxy)carbonyl)amino) cyclobutane-1-carboxylate] | 0.001 to 10 | 0.001 to 10 |
| O=C(Nc1ccc(F)cc1)N[C@H]1CC[C@@H](NC(=O)O[C@@H]2CCN(c3cn[nH]c(=O)c3Cl)C2)CC1 [P-0189, (R)-1-(5-chloro-6-oxo-1,6-dihydropyridazin-4-yl)pyrrolidin-3-yl ((1s,4S)-4-(3-(4-fluorophenyl)ureido)cyclohexyl)carbamate] | 0.001 to 10 | 0.001 to 10 |
| O=C(N[C@H]1CC[C@H](C(=O)O)CC1)O[C@@H]1CCN(c2cn[nH]c(=O)c2Cl)C1 [P-0190, (1R,4r)-4-(((((R)-1-(5-chloro-6-oxo-1,6-dihydropyridazin-4-yl)pyrrolidin-3-yl)oxy)carbonyl)amino) cyclohexane-1-carboxylic acid] | 10 to 100 | 0.001 to 10 |
| CCCNC(=O)[C@H]1CC[C@H](NC(=O)O[C@@H]2CCN(c3cn[nH]c(=O)c3Cl)C2)CC1 [P-0191, (R)-1-(5-chloro-6-oxo-1,6-dihydropyridazin-4-yl)pyrrolidin-3-yl ((1r,4R)-4-(propylcarbamoyl)cyclohexyl) carbamate] | 0.001 to 10 | 0.001 to 10 |
